From publication PMC11279465, “Dual Inhibitors of P-gp and Carbonic Anhydrase XII (hCA XII) against Tumor Multidrug Resistance with Piperazine Scaffold” (Molecules, 2024)

Tests used:
P-gp = P-gp (Homo sapiens, UniProt P08183); experiment: Calcein-AM transport inhibition in MDCK-MDR1 cells; assay type: cell-based; set-up: expressed in transfected cells; host or cells: MDCK (Madin-Darby Canine Kidney); details: mean ± SEM
Excerpt: The MDR interaction potency of these compounds was studied by detecting the inhibition of the P-gp-, MRP1- or BCRP-mediated efflux of a substrate in cells overexpressing the studied pumps. In detail, we measured the following: (i) the transport inhibition of the profluorescent probe calcein-AM (P-gp and MRP1 substrate) in MDCK-MDR1 and MDCK-MRP1 cells (P-gp- and MRP1-overexpressing cells, respectively); (ii) the transport inhibition of the fluorescent probe Hoechst 33342 (BCRP substrate) in MDCK-BCRP cells (BCRP-overexpressing cells).
Experiments were performed as previously described. MDCK-MDR1 and MDCK-MRP1 cells (30,000 cells per well) were seeded in a 96-well black CulturePlate in 100 µL of medium and allowed to grow overnight in a humidified atmosphere of 5% CO2 at 37 °C. Tested compounds (100 µL) in a final concentration ranging between 0.01 nM and 100 µM, solubilized in culture medium, were added to the monolayers. After 30 min in a humidified atmosphere of 5% CO2 at 37 °C, 100 µL of Calcein-AM in phosphate-buffered saline (PBS) was added to obtain a final concentration of 2.5 µM and the plate was incubated for 30 min. All wells were washed 3 times with 100 µL ice-cold PBS and read with Victor3 (PerkinElmer) after adding 100 µL of cold PBS. Excitation and emission wavelengths of 485 nm and 535 nm, respectively, were used. In these experimental conditions, cell Calcein-AM accumulation in the absence and in the presence of each tested compound was evaluated and compared to the basal level of fluorescence derived from untreated cells. The increase in fluorescence from the baseline level was measured in the treated wells. EC50 values were determined by fitting the rate of fluorescence increase versus log[dose].

K562/DOX cells = experiment: Intrinsic cytotoxicity (MTT); assay type: cell-based, human; details: compound alone at 3 µM, 72 h
Description: Compounds were first studied at 1 and 3 µM concentrations to evaluate their intrinsic cytotoxicity in both the parental K562 and the resistant K562/DOX cell lines, using the MTT assay. All compounds had no intrinsic cytotoxicity in the parental line.
The intrinsic toxicity of the studied compounds was determined by an MTT assay. K562 and K562/DOX were exposed for 72 h with compounds at 1 and 3 µM concentrations while HT29, A549, HT29/DOX and A549/DOX cells were incubated for 48 h with compounds used at different concentrations (from 10 nM to 50 µM). The percentage of growth compared to the untreated control was transformed into histograms with the GraphPad Prism 5 program.

P-gp, sequence (P08183 whole entry): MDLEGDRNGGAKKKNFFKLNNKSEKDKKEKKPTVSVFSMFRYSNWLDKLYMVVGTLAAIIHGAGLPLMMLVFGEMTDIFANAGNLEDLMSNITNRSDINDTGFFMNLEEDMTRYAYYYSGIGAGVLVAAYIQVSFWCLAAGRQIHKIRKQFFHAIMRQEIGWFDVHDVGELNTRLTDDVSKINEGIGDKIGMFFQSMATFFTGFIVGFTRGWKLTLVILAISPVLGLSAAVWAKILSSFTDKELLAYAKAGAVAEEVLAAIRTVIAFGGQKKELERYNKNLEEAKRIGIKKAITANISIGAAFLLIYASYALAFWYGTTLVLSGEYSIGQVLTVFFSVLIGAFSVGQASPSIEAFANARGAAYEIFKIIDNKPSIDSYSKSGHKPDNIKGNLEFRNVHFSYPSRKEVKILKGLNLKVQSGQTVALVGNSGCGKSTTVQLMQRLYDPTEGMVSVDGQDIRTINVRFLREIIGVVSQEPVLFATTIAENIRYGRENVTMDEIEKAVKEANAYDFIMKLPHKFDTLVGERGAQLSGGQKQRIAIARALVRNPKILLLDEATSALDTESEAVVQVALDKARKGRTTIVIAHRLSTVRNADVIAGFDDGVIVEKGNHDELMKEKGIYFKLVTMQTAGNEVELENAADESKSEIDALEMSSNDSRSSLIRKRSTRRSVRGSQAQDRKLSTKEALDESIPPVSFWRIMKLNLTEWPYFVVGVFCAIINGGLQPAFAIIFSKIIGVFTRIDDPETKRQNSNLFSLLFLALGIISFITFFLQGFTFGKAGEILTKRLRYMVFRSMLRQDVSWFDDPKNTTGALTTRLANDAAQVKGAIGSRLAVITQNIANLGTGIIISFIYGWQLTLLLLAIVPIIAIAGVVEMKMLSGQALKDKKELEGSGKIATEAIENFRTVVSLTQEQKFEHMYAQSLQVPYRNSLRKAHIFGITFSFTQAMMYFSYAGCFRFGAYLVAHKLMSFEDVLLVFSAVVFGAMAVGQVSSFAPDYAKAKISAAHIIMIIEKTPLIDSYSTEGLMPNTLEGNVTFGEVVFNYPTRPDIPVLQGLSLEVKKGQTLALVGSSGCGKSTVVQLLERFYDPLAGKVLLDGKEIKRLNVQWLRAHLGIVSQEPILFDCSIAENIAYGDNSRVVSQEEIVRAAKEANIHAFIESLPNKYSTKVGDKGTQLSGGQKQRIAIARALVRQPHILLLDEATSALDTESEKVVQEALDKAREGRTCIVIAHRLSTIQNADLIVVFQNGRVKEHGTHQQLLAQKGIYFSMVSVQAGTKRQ

Row | SMILES | EC50 (P-gp) [µM] | reduction of cellular viability (K562/DOX cells)
1 | COc1ccc(C(CCCN2CCN(CCCOc3ccc4oc(=O)ccc4c3)CC2)c2ccc(OC)cc2)cc1 [Compound 32, 6-(3-(4-(4,4-Bis(4-methoxyphenyl)butyl)piperazin-1-yl)propoxy)-2H-chromen-2-one] | 4.53 ± 0.17 | 
2 | COc1ccc(C(CCCN2CCN(CCCCOc3ccc4ccc(=O)oc4c3)CC2)c2ccc(OC)cc2)cc1 [Compound 27, 7-(4-(4-(4,4-Bis(4-methoxyphenyl)butyl)piperazin-1-yl)butoxy)-2H-chromen-2-one] | 3.99 ± 0.11 | 30–50%
